From paper PMC10218941, “Design, Synthesis, Antiproliferative Actions, and DFT Studies of New Bis–Pyrazoline Derivatives as Dual EGFR/BRAF^V600E Inhibitors” (International Journal of Molecular Sciences, 2023)

How the values were obtained:
[1] = system: Panc-1 (pancreatic cancer cell line); assay: Antiproliferative assay (MTT), Panc-1; format: cell-based; details: Homo sapiens, read-out: Antiproliferative Activity IC50 ± SEM (µM) Panc-1
Procedure: (§1) The antiproliferative activity of pyrazoline hybrids 8–17 was tested against the four human cancer cell lines Panc-1 (pancreatic cancer cell line), MCF-7 (breast cancer cell line), HT-29 (colon cancer cell line), and A-549 (lung cancer cell line) using the MTT assay and doxorubicin as the reference drug. See Appendix SA (Supplementary File). […]
(§2) 4.2.1.2. Assay for antiproliferative effect
(§3) To explore the antiproliferative potential of compounds propidium iodide fluorescence assay was performed using different cell lines such as Panc -1 (pancreas cancer cell line), MCF-7 (breast cancer cell line), HT-29 (colon cancer cell line) and A-549 (epithelial cancer cell line), respectively. To calculate the total nuclear DNA, a fluorescent dye (propidium iodide, PI) is used which can attach to the DNA, thus offering a quick and precise technique. PI cannot pass through the cell membrane and its signal intensity can be considered as directly proportional to quantity of cellular DNA. Cells whose cell membranes are damaged or have changed permeability are counted as dead ones. The assay was performed by seeding the cells of different cell lines at a density of 3000-7500 cells/well (in200μl medium) in culture plates followed by incubation for 24h at 37 °C in humidified 5%CO2/95% air atmospheric conditions. The medium was removed; the compounds were added to the plates at 10 μM concentrations (in 0.1% DMSO) in triplicates, followed by incubation for 48h. DMSO (0.1%) was used as control. After incubation, medium was removed followed by the addition of PI (25 μl, 50μg/mL in water/medium) to each well of the plates. At - 80 °C, the plates were allowed to freeze for 24 h, followed by thawing at 25 °C. A fluorometer (Polar-Star BMG Tech) was used to record the readings at excitation and emission wavelengths of 530 and 620 nm for each well. The percentage cytotoxicity of compounds was calculated using […]
(§4) Where ATC= Absorbance of treated cells and AC= Absorbance of control. Erlotinib was used as positive control in the assay. […]

[2] = system: four human cancer cell lines (A-549, MCF-7, Panc-1, HT-29); assay: Antiproliferative assay, mean of four cancer cell lines (GI50); format: cell-based; details: mean over A-549, MCF-7, Panc-1, HT-29
BRAF^V600E = BRAF^V600E inhibitory assay
Chain of BRAF^V600E (P28028 whole entry V585E): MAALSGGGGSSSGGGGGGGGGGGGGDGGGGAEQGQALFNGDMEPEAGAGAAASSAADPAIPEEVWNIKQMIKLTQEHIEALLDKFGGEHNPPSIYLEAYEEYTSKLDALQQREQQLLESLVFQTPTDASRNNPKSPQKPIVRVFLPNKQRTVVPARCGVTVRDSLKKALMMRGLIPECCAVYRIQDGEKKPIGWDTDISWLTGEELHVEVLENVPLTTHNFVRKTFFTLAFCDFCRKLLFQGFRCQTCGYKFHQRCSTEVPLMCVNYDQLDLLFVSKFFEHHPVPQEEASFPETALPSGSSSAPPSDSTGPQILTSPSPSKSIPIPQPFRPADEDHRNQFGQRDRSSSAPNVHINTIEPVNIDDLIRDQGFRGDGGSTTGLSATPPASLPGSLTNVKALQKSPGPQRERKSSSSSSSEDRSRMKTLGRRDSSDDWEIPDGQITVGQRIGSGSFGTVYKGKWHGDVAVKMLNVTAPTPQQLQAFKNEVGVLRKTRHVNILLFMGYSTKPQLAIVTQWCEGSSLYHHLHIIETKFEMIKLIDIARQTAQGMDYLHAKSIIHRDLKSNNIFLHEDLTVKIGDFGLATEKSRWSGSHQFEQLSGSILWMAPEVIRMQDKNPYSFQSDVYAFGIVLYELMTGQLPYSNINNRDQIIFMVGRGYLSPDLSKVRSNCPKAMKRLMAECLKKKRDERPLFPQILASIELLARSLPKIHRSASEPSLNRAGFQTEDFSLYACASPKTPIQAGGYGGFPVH
Procedure: V600E mutant BRAF kinase assay was performed to investigate the activity of tested compounds against BRAF. Mouse full-length GST-tagged BRAFV600E (7.5 ng, Invitrogen, PV3849) was pre-incubated with drug (1 µL) and assay dilution buffer (4 µL) for 60 min at 25 °C. In assay dilution buffer, a solution (5 µL) containing MgCl2 (30 mM), ATP (200 µM), recombinant human full length (200 ng) and N-terminal His-tagged MEK1 (Invitrogen) was added to start the assay, subsequent to incubation for 25 min at 25 °C. The assay was stopped using 5X protein denaturing buffer (LDS) solution (5 µL). To further denature the protein, heat (70° C) was applied for 5 min.
10 µL of each reaction was loaded into the precast plates and electrophoresis was allowed to proceed. After completion of electrophoresis, the front part of the precast gel plate (holding hot ATP) was cut and afterwards cast-off. The dried gel was developed using a phosphor screen.
served as positive control.

[3] = Cell viability assay (MTT) on normal mammary epithelial cells; format: cell-based; details: human, MCF-10A normal mammary gland epithelial cells, MCF-10A cells, four days
Procedure: To test the viability of new substances, the epithelial (MCF-10A) cell line of the normal human mammary gland was used. Compounds 8–17 were incubated for four days on MCF-10A cells before being tested for viability using the MTT assay. According to Table 1, none of the substances tested were cytotoxic, and cell viability at 50 µM was greater than 87% for the compounds tested.
The normal human mammary gland epithelial (MCF-10A) cell line was used to test the viability of new compounds [46, 47]. See Appendix SA (Supplementary File).
(§5) 4.2. Biological evaluation
4.2.1. Cytotoxic activity using MTT Assay and evaluation of IC50
MTT assay was performed to investigate the effect of the synthesized compounds on mammary epithelial cells (MCF-10A). The cells were propagated in medium consisting of Ham's F-12 medium/ Dulbecco's modified Eagle's medium (DMEM) (1:1) supplemented with 10% foetal calf serum, 2 mM glutamine, insulin (10 μg/mL), hydrocortisone (500 ng/mL) and epidermal growth factor (20 ng/mL). Trypsin ethylenediamine tetra acetic acid (EDTA) was used to passage the cells after every 2-3 days. 96-well flat-bottomed cell culture plates were used to seed the cells at a […]
of 10^4 cells mL-1. The medium was aspirated from all the wells of culture plates after 24 h followed by the addition of synthesized compounds (in 200 μL medium to yield a final concentration of 0.1% (v/v) dimethyl sulfoxide) into individual wells of the plates. Four wells were designated to a single compound. The plates were allowed to incubate at 37°C for 96 h. Afterwards, the medium was aspirated and 3 -[4,5-dimethylthiazol-2-yl]-2,5-diphenyltetrazolium bromide (MTT) (0.4 mg/mL) in medium was added to each well and subsequent ly incubated for 3 h. The medium was aspirated and 150 μL dimethyl sulfoxide (DMSO) was added to each well. The plates were vortexed followed by the measurement of absorbance at 540 nm on a microplate reader. […]

EGFR = molecular target: T1, EGFR (Homo sapiens, UniProt P00533); assay: EGFR inhibitory assay; format: biochemical; details: read-out: EGFR Inhibition IC50 ± SEM
T1 construct: 645–1186); His6 (N); made in house; host or cells: Sf-9 insect cells (baculovirus; pBlueBacHis2B / pFASTBacHTc
T1 sequence (P00533 669-1210): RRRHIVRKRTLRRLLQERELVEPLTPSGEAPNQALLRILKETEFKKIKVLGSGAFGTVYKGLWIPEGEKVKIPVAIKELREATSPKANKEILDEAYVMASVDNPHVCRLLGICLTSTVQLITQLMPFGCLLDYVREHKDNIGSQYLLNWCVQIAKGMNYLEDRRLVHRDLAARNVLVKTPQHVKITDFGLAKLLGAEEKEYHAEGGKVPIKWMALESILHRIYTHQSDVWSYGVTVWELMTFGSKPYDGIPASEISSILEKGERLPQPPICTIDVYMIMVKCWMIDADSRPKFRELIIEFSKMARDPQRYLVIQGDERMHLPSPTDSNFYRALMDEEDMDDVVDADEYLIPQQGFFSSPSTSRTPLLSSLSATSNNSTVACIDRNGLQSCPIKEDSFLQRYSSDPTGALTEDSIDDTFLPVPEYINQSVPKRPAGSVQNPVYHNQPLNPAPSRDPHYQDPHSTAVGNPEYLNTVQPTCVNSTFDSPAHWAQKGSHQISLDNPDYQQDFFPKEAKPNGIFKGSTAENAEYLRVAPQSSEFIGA
Procedure: 4.2.2. EGFR inhibitory assay
Baculoviral expression vectors including pBlueBacHis2B and pFASTBacHTc were used […]
(1 picture or pasted object on this page, not shown here)
5ʹ upstream to the EGFR sequence comprised a sequence that encoded (His)6. Sf-9 cells were infected for 72h for protein expression. The pellets of Sf-9 cells were solubilized in a buffer containing sodium vanadate (100 μM), aprotinin (10 μg/mL), triton (1%), HEPES […]
centrifugation for 20 min.
Histidine-linked proteins were first eluted with 250 and then […]
enhancement solution was added to each well and the signal was recorded at excitation and […]
The autophosphorylation percentage inhibition by compounds was calculated using the following equation: […]

[4] = system: HT-29 (colon cancer cell line); assay: Antiproliferative assay (MTT), HT-29; format: cell-based; details: Homo sapiens, read-out: Antiproliferative Activity IC50 ± SEM (µM) HT-29
Procedure: as §1, §2, §3, §4

[5] = system: MCF-7 (breast cancer cell line); assay: Antiproliferative assay (MTT), MCF-7; format: cell-based; details: Homo sapiens, MCF7; read-out: Antiproliferative Activity IC50 ± SEM (µM) MCF-7
Procedure: The antiproliferative activity of pyrazoline hybrids 8–17 was tested against the four human cancer cell lines Panc-1 (pancreatic cancer cell line), MCF-7 (breast cancer cell line), HT-29 (colon cancer cell line), and A-549 (lung cancer cell line) using the MTT assay and doxorubicin as the reference drug. See Appendix SA (Supplementary File).
as §5
4.2.1. Cytotoxic activity using MTT Assay and evaluation of IC50 […]
96-well flat-bottomed cell culture plates were used to seed the cells at a […]
of 10^4 cells mL-1. The medium was aspirated from all the wells of culture plates after 24 h followed by the addition of synthesized compounds (in 200 μL medium to yield a final concentration of 0.1% (v/v) dimethyl sulfoxide) into individual wells of the plates. Four wells were designated to a single compound. The plates were allowed to incubate at 37°C for 96 h. Afterwards, the medium was aspirated and 3 -[4,5-dimethylthiazol-2-yl]-2,5-diphenyltetrazolium bromide (MTT) (0.4 mg/mL) in medium was added to each well and subsequent ly incubated for 3 h. The medium was aspirated and 150 μL dimethyl sulfoxide (DMSO) was added to each well. The plates were vortexed followed by the measurement of absorbance at 540 nm on a microplate reader. The results were presented as inhibition (%) of proliferation in contrast to controls comprising 0.1% 4.2.1.2. Assay for antiproliferative effect
as §3, §4

Work on COc1ccc(C2CC(c3ccc(OCC(=O)Nc4ccc(C5=NNC(c6ccc(OC)c(OC)c6)C5)cc4)cc3)=NN2)cc1 (centres unmarked) [Compound 12, 2-(4-(5-(4-Methoxyphenyl)-4,5-dihydro-1H-pyrazol-3-yl)phenoxy)-N-(4-(5-(3,4-dimethoxyphenyl)-4,5-dihydro-1H-pyrazol-3-yl)phenyl)acetamide] yielded an IC50 [1] of 1.1 ± 0.1 µM, an IC50 [2] of 1.05 µM and an IC50 (BRAF^V600E) of 0.093 ± 0.006 µM. For the same molecule, the viability at 96 h, 50 µM [3] was 90%, the IC50 (EGFR) was 0.081 ± 0.005 µM and the IC50 [4] was 1.2 ± 0.1 µM. For the same molecule, the IC50 [5] was 0.9 ± 0.1 µM.
Work on COc1ccc(C2CC(c3ccc(NC(=O)COc4ccc(C5=NNC(c6ccc(OC)c(OC)c6)C5)cc4)cc3)=NN2)cc1 (centres unmarked) [Compound 17, 2-(4-(5-(3,4-Dimethoxyphenyl)-4,5-dihydro-1H-pyrazol-3-yl)phenoxy)-N-(4-(5-(4-methoxyphenyl)-4,5-dihydro-1H-pyrazol-3-yl)phenyl)acetamide] yielded an IC50 [1] of 1.3 ± 0.1 µM, an IC50 [2] of 1.2 µM and an IC50 (BRAF^V600E) of 0.107 ± 0.009 µM. It also gave a viability at 96 h, 50 µM [3] of 91%, an IC50 (EGFR) of 0.087 ± 0.006 µM and an IC50 [4] of 1.3 ± 0.1 µM. It also gave an IC50 [5] of 1 ± 0.1 µM.
